Ki and IC50 data for 16 compounds are collected here from patent publication US8129399B2, “Aminopyrimidines useful as kinase inhibitors” (Vertex Pharmaceuticals Incorporated, priority 2005, dated 2012).

As a reminder, the Ki is a dissociation constant, usually derived from enzyme kinetics or from competition with a known ligand. A high value points to weaker binding. The IC50 is the point on the concentration scale where inhibition reaches its midpoint.

Molecules are shown by their SMILES.

Format in all cases: biochemical
The target in assay [1] is T1, FLT-3 (Homo sapiens, UniProt P36888).
T1 sequence (P36888 27-993): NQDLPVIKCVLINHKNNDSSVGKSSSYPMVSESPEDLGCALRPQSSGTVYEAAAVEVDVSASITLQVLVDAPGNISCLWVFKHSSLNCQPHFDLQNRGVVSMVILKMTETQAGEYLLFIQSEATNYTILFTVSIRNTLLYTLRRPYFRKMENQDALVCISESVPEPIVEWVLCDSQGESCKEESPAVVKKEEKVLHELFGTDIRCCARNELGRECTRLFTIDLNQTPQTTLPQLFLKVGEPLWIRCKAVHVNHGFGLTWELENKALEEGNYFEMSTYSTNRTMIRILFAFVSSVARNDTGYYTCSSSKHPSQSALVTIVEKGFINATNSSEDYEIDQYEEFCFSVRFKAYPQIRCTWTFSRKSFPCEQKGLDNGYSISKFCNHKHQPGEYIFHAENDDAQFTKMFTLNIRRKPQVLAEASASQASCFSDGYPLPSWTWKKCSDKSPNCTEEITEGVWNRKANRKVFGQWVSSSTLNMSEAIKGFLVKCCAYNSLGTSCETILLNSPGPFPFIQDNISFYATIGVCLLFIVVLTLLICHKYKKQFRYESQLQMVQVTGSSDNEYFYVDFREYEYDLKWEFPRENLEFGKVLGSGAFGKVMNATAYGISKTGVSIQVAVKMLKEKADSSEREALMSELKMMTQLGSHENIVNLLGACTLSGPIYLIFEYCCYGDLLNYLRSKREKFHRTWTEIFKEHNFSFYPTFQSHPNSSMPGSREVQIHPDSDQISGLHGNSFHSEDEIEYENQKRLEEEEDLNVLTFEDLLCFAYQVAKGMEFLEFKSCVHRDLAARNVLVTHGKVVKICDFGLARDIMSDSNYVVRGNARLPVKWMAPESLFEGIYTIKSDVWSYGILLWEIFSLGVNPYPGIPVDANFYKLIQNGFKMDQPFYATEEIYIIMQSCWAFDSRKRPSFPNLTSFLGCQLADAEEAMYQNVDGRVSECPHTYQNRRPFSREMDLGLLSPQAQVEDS
Put plainly: FLT-3 inhibition assay, radiometric filter-binding. The note with it: 90 μM ATP. The procedure: This assay monitors the ^33P incorporation into a substrate poly(Glu, Tyr) 4:1 (pE4Y). Reactions were carried out in a solution containing 100 mM HEPES (pH 7.5), 10 mM MgCl2, 25 mM NaCl, 1 mM DTT, 0.01% BSA and 2.5% DMSO. Final substrate concentrations in the assay were 90 μM ATP and 0.5 mg/ml pE4Y (both from Sigma Chemicals, St Louis, Mo.). The final concentration of a compound of the present invention was generally between 0.01 and 5 μM. Typically, a 12-point titration was conducted by preparing serial dilutions from 10 mM DMSO stock of test compound. Reactions were carried out at room temperature.
Two assay solutions were prepared. Solution 1 contains 100 mM HEPES (pH 7.5), 10 mM MgCl2, 25 mM NaCl, 1 mg/ml pE4Y and […] (containing 0.3 mCi of [γ-33^P]ATP for each reaction). Solution 2 contains 100 mM HEPES (pH 7.5), 10 mM MgCl2, 25 mM NaCl, 2 mM DTT, 0.02% BSA and 3 nM FLT-3. The assay was run on a 96 well plate by mixing 50 μl each of Solution 1 and […] of the compounds of the present invention. The reaction was initiated with Solution 2. […] All of the reaction volume was then transferred to a filter plate and washed with 5% TCA by a Harvester 9600 from TOMTEC (Hamden, Conn.). The amount of ^33P incorporation into pE4y was analyzed by a Packard Top Count Microplate Scintillation Counter (Meriden, Conn.). The data was fitted using Prism software to get an IC50 or Ki.

For assay [2], the target named is N-terminally truncated (Δ 27) Abl kinase (Homo sapiens, UniProt P00519). Kind of assay: Abl kinase activity inhibition assay, coupled enzyme. The procedure:
Reactions were carried out in a solution containing 100 mM HEPES (pH 7.5), 10 mM MgCl2, 25 mM NaCl, 300 μM NADH, 1 mM DTT and 3% DMSO. […] Final concentrations of the components of the coupled enzyme system were 2.5 mM phosphoenolpyruvate, 200 μM NADH, 60 μg/ml pyruvate kinase and 20 μg/ml lactate dehydrogenase.
An assay stock buffer solution was prepared containing all of the reagents listed above with the exception of ATP and the test compound of interest. […] Rates of reaction were obtained using a Molecular Devices Spectramax plate reader (Sunnyvale, Calif.) over 10 min at 30° C. The Ki values were determined from the residual rate data as a function of inhibitor concentration using nonlinear regression (Prism 3.0, Graphpad Software, San Diego, Calif.).

The target in assay [3] is Arg (Abl-2) (Homo sapiens, UniProt P42684). Put plainly: Arg (Abl-2) inhibition screen. Particulars: ATP at or close to Km. The text has this:
(§1) Compound(s) were screened for their ability to inhibit Arg (Abl-2), FGFR1, MLK1, Tie2, and TrkA using screening methods known to one of ordinary skill in the art. All of the above enzymes were screened with ATP concentrations at or close to the Km for ATP.

For assay [4], the target named is FGFR1 (Homo sapiens, UniProt P11362). Kind of assay: FGFR1 inhibition screen. Particulars: ATP at or close to Km.
Excerpt: as §1

Assay [5] has as its target MLK1 (Homo sapiens, UniProt P80192). Kind of assay: MLK1 inhibition screen. The note with it: ATP at or close to Km.
Excerpt: as §1

The target in assay [6] is Tie2 (Homo sapiens, UniProt Q02763). Put plainly: Tie2 inhibition screen. Particulars: ATP at or close to Km.
Excerpt: as §1

Assay [7] has as its target TrkA (Homo sapiens, UniProt P04629). Put plainly: TrkA inhibition screen. Particulars: ATP at or close to Km.
Excerpt: as §1

[8] abbreviates: Table 6, introduced as Ki values.

Sequence of FGFR1 (P11362 22-822, species assumed): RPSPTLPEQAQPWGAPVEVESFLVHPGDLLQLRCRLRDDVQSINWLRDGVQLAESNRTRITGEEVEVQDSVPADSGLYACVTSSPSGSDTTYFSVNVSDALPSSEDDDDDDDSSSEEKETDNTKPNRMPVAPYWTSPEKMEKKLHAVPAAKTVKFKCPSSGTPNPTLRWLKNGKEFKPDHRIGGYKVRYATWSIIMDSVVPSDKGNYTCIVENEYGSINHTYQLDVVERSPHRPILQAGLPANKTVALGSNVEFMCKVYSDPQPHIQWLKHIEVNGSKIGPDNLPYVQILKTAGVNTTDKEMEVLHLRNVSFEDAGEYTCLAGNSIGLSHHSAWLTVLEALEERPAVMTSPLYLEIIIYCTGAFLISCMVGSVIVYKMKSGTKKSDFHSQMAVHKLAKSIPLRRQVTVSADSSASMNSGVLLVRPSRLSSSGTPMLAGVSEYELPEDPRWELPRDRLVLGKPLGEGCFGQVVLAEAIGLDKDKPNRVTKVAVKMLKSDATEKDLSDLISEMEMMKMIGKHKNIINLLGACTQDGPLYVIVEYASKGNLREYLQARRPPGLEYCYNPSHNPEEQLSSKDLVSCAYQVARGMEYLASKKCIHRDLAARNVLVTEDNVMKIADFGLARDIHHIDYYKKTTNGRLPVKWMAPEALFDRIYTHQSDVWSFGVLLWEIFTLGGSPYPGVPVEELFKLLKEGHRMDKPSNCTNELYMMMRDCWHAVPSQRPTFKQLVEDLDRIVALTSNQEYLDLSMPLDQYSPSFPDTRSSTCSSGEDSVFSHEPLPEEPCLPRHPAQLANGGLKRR
Sequence of Arg (Abl-2) (P42684 whole entry, species assumed): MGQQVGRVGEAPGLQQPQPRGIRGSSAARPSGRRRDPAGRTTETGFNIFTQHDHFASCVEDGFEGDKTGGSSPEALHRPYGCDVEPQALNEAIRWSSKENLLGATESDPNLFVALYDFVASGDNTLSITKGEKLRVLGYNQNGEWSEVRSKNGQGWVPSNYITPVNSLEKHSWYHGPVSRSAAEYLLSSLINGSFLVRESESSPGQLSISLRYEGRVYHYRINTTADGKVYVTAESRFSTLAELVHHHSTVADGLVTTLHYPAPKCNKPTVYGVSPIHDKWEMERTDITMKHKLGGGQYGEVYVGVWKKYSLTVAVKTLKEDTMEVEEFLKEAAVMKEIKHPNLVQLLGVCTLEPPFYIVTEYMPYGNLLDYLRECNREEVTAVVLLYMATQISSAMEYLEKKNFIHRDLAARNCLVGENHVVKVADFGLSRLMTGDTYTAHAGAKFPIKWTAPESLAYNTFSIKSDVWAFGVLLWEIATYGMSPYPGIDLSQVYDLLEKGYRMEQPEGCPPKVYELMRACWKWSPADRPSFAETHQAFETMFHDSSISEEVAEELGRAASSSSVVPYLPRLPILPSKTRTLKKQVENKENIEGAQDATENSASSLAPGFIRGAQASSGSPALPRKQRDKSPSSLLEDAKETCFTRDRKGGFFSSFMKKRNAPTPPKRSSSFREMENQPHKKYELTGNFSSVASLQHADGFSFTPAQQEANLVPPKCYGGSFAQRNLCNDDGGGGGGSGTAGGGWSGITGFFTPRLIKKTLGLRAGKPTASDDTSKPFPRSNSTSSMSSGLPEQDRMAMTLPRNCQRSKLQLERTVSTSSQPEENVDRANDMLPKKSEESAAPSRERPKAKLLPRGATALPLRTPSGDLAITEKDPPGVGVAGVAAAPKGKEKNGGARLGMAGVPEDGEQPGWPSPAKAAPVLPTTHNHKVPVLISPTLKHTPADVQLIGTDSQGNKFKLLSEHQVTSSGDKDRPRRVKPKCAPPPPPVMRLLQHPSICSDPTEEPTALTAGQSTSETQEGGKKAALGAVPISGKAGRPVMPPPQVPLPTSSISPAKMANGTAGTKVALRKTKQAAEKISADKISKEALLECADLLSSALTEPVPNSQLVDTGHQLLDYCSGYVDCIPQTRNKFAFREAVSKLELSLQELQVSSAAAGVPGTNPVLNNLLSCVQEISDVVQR
Sequence of N-terminally truncated (Δ 27) Abl kinase (P00519 28-1130 limits assumed, stated change not applied): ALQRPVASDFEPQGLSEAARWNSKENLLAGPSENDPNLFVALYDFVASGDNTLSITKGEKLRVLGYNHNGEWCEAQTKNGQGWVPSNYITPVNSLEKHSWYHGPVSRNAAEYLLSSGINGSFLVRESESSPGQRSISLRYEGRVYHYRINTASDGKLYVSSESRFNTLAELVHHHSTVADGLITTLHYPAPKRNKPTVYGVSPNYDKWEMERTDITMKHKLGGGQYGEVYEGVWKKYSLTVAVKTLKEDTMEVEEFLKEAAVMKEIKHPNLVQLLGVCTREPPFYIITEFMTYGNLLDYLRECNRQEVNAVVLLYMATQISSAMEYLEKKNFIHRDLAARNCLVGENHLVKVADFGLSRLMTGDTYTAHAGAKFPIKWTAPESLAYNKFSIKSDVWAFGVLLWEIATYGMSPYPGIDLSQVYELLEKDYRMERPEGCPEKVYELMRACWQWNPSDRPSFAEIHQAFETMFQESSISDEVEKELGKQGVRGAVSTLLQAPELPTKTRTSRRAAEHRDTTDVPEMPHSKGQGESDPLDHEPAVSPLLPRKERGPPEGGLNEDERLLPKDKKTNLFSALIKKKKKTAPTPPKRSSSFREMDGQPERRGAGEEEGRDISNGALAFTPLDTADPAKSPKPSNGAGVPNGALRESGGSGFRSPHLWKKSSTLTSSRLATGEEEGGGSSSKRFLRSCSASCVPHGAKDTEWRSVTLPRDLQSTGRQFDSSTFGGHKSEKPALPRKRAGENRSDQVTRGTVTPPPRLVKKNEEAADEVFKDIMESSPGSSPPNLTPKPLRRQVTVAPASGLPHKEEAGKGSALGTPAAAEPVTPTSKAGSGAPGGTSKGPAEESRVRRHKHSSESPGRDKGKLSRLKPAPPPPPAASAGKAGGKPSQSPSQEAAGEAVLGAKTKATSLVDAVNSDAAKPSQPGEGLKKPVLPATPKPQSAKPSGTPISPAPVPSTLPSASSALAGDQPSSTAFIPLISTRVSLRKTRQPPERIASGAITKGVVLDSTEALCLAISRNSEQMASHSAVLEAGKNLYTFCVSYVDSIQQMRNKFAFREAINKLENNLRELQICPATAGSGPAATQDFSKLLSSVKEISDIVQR
Sequence of Tie2 (Q02763 23-1124, species assumed): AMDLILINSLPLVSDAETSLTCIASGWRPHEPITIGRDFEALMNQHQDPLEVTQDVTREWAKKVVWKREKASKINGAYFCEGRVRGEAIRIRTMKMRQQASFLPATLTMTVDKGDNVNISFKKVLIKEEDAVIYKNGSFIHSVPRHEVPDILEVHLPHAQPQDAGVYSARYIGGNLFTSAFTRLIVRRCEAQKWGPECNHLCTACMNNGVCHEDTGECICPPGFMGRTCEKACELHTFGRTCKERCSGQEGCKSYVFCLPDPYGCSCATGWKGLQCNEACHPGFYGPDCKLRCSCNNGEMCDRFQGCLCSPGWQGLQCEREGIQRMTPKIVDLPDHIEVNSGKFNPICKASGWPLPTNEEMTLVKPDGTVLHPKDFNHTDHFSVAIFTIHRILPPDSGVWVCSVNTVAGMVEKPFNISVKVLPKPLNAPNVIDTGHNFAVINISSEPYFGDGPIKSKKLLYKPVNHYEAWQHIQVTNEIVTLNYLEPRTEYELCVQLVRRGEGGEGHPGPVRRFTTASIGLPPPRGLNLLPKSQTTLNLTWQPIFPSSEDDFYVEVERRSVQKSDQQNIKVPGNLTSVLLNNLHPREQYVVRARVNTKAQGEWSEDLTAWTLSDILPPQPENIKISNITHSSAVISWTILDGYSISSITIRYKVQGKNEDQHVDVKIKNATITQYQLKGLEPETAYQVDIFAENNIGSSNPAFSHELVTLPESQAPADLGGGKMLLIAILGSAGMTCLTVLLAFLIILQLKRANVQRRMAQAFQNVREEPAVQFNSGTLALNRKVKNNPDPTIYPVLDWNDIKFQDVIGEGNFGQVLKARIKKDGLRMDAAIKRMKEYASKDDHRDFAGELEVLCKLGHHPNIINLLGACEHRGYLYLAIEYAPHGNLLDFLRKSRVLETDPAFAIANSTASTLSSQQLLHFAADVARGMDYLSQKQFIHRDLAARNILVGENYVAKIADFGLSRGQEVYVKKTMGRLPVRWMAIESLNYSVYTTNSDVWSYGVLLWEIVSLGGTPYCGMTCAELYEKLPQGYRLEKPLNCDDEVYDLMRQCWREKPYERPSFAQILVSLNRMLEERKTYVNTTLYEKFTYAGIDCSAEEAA
Sequence of TrkA (P04629 33-796, species assumed): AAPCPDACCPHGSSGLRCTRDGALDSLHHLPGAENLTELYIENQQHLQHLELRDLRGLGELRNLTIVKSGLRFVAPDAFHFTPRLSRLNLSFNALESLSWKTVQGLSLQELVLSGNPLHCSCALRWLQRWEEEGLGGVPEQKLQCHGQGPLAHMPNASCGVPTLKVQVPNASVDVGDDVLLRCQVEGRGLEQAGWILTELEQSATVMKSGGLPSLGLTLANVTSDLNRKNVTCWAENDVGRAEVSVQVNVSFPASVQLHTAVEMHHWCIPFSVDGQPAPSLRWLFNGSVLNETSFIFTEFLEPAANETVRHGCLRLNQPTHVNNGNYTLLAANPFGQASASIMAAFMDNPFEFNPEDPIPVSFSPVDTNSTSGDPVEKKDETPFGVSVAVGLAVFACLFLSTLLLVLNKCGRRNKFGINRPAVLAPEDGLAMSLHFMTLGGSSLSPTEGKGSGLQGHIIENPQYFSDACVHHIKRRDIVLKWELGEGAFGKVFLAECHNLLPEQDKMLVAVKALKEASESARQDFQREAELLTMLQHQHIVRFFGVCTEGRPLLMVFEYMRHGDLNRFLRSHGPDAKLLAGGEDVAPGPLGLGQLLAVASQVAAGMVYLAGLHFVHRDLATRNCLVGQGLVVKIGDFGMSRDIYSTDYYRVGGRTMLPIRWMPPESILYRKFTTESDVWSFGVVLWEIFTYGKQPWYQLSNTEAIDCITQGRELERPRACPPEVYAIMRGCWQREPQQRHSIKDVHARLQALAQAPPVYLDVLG

Regarding `CCC(=O)Nc1ccc(Sc2nc(Nc3cc(C)n[nH]3)cc(N3CC(O)(C4CC4)C3)n2)cc1` [Compound I-2], the figures for the Ki in assay [1] and in assay [2] were 36 nM and 64 nM, respectively.
Consider `CCC(=O)Nc1ccc(Sc2nc(Nc3cc(C)n[nH]3)cc(N3CC(O)(C4CCCC4)C3)n2)cc1` [Compound I-3], for which the Ki worked out at 26 nM in assay [1] and 30 nM in assay [2].
`CCC(=O)Nc1ccc(Sc2nc(Nc3cc(C)n[nH]3)cc(N3CC(O)(C(C)C)C3)n2)cc1` [Compound I-5]: the Ki in assay [1] came to 21 nM.
Take `CCC(=O)Nc1ccc(Sc2nc(Nc3cc(C)n[nH]3)cc(N3CC(O)(C(C)CC)C3)n2)cc1` (centres unmarked) [Compound I-6]: the inhibition constant Ki in assay [1] is 48 nM. This Ki is about 2.3-fold higher than that of the compound before.
In assay [1], `CCC(=O)Nc1ccc(Sc2nc(Nc3cc(C4CC4)[nH]n3)cc(N3CC(O)(C4CC4)C3)n2)cc1` [Compound I-7] yielded an inhibitory constant (Ki) of 23 nM.
Regarding `Cc1cc(Nc2cc(N3CC(O)(C4CC4)C3)nc(Sc3ccc(NC(=O)C4CC4)cc3)n2)n[nH]1` [Compound I-8], the inhibition constant (Ki) in assay [1] came out at 28 nM; in assay [2], 30 nM.
In assay [1], `Cc1cc(Nc2cc(N3CC(O)(C4CC4)C3)nc(Sc3ccc(NC(=O)C4CCCC4)cc3)n2)[nH]n1` [Compound I-9, N-(4-((4-(3-methyl-1H-pyrazol-5-ylamino)-6-(3-cyclopropyl-3-hydroxyazetidin-1-yl)pyrimidin-2-yl)sulfanyl)phenyl)cyclopentanecarboxamide] came in with a Ki of 110 nM.
As to `O=C(Nc1ccc(Sc2nc(Nc3cc(C4CC4)[nH]n3)cc(N3CC(O)(C4CC4)C3)n2)cc1)C1CC1` [Compound I-10], in assay [1], the affinity corresponds to a Ki of 2.5 nM.
In assay [1], `Cc1cc(Nc2cc(N3CC(O)(C4CC4)C3)nc(Sc3ccc(NC(=O)C4CC4)cc3F)n2)[nH]n1` [Compound I-11, N-(4-((4-(3-methyl-1H-pyrazol-5-ylamino)-6-(3-cyclopropyl-3-hydroxyazetidin-1-yl)pyrimidin-2-yl)sulfanyl)-3-fluorophenyl)cyclopropanecarboxamide] displayed a Ki of 20 nM.
On to `Cc1cc(Nc2cc(N3CC(O)(C4CC4)C3)nc(Sc3ccc(NC(=O)C4CC4(F)F)cc3)n2)[nH]n1` (centres unmarked) [Compound I-12], for which the inhibition constant (Ki) in assay [1] was 15 nM.
As for `Cc1cc(Nc2cc(N3CC(F)(C4CC4)C3)nc(Sc3ccc(NC(=O)C4CC4)cc3)n2)n[nH]1` [Compound I-13], the Ki in assay [1] turned out to be 43 nM; in assay [2], 88 nM.
With `Cc1cc(Nc2cc(N3CC(F)(C4CC4)C3)nc(Sc3ccc(NC(=O)CC(F)(F)F)cc3)n2)[nH]n1` [Compound I-14, N-(4-(4-(3-methyl-1H-pyrazol-5-ylamino)-6-(3-cyclopropyl-3-fluoroazetidin-1-yl)pyrimidin-2-ylthio)phenyl)-3,3,3-trifluoropropanamide], the inhibition constant Ki in assay [1] amounted to 65 nM; in assay [2], 23 nM. The half-inhibitory concentration (IC50) worked out at 14 nM in assay [3] (Table 5); 3.3 nM in assay [3] (setting [8]); 121 nM in assay [4] (Table 5); 65 nM in assay [4] (setting [8]); 27 nM in assay [5] (Table 5); 14 nM in assay [5] (setting [8]). In addition, the IC50 stood at 89 nM in assay [6] (Table 5), 47 nM in assay [6] (setting [8]), 18 nM in assay [7] (Table 5) and 5 nM in assay [7] (setting [8]).
The compound `Cc1cc(Nc2cc(N3CC(F)(C4CC4)C3)nc(Sc3ccc(NC(=O)C4CC4)cc3F)n2)n[nH]1` [Compound I-18] yielded an inhibition constant Ki in assay [1] of 160 nM. Besides, the IC50 was found to be 53 nM in assay [3] (Table 5) and 22 nM in assay [4] (Table 5).
For `Cc1cc(Nc2cc(N3CC(F)(C4CC4)C3)nc(Sc3ccc(NC(=O)CC4CC4)cc3)n2)[nH]n1` [Compound I-19], in that order: 140 nM, 130 nM and 35 nM.
Regarding `Cc1cc(Nc2cc(N3CC(F)(C4CC4)C3)nc(Sc3ccc(NC(=O)C4CC4(F)F)cc3)n2)[nH]n1` (centres unmarked) [Compound I-20], in assay [1], the inhibition constant Ki was found to be 72 nM.
In assay [1], `Cc1cc(Nc2cc(N3CC(F)(C4CC4)C3)nc(Sc3ccc(NC(=O)CC(F)(F)F)nc3)n2)[nH]n1` [Compound I-21, N-(5-(4-(3-methyl-1H-pyrazol-5-ylamino)-6-(3-cyclopropyl-3-fluoroazetidin-1-yl)pyrimidin-2-ylthio)pyridin-2-yl)-3,3,3-trifluoropropanamide] came in with a Ki of 120 nM.
